Measurements: US20240226125A1, “USE OF SOTAGLIFLOZIN FOR THE TREATMENT OF PATIENTS WITH TYPE 1 DIABETES MELLITUS” (priority 2019, published 2024)

Tested on: adult patients with Type 1 Diabetes Mellitus who have inadequate glycemic control with insulin therapy
Test: inTandem 1 and inTandem 2 pooled clinical studies, safety events / main risks
Format: in vivo, human
Conditions: for Discontinuation of drug due to diarrhea / Patients with Any TEAE, (%) / Patients with DKA (positively adjudicated), (%) / Patients with Diarrhea, (%) / Patients with Genital mycotic infection, (%) / Patients with Severe hypoglycemia (positively adjudicated), (%): through 52 Weeks
[1] = 400 mg, Baseline BMI <27 kg/m^2, Week 52
[2] = 400 mg, Baseline BMI ≥27 kg/m^2, Week 52

In the case of CCOc1ccc(Cc2cc([C@@H]3O[C@H](SC)[C@@H](O)[C@H](O)[C@H]3O)ccc2Cl)cc1 [sotagliflozin, (2S,3R,4R,5S,6R)-2-(4-chloro-3-(4-ethoxybenzyl)phenyl)-6-(methylthio)tetrahydro-2H-pyran-3,4,5-triol], the “Diarrhea, EAIR per 1,000 Subject-years (95% CL)” value [1] is reported as 102.78 (56.56, 148.99) per 1,000 Subject-years, the “Diarrhea, Events [n (%) n]: events n” value [1] is reported as 28 and the “Diarrhea, Events [n (%) n]: patients (%)” value [1] is reported as 9.0%. For the same molecule, the “Diarrhea, Events [n (%) n]: patients n” value [1] was 19, the “Diarrhea, Events per Subject per Year” value [1] was 0.151 Events per Subject per Year and the “Diarrhea, Relative Risk of EAIR (95% CL) Versus Placebo” value [1] was 2.98 (1.28, 7.60). The “Documented hypoglycemia <55 mg/dL, Events per Subject per Year” value [1] was 15.74 Events per Subject per Year, the “Genital Mycotic Infections (female), EAIR per 1,000 Subject-years (95% CL)” value [1] was 196.79 (108.30, 285.28) per 1,000 Subject-years and the “Genital Mycotic Infections (female), Events [n (%) n]: events n” value [1] was 31. The “Genital Mycotic Infections (female), Events [n (%) n]: patients (%)” value [1] was 16.8%, the “Genital Mycotic Infections (female), Events per Subject per Year” value [1] was 0.321 Events per Subject per Year and the “Genital Mycotic Infections (female), Relative Risk of EAIR (95% CL) Versus Placebo” value [1] was 6.46 (2.09, 27.41). The “Genital Mycotic Infections (male), EAIR per 1,000 Subject-years (95% CL)” value [1] was 101.91 (35.33, 168.49) per 1,000 Subject-years, the “Genital Mycotic Infections (male), Events [n (%) n]: events n” value [1] was 10 and the “Genital Mycotic Infections (male), Events [n (%) n]: patients (%)” value [1] was 9.1%. The “Genital Mycotic Infections (male), Events per Subject per Year” value [1] was 0.113 Events per Subject per Year, the “Genital Mycotic Infections (male), Relative Risk of EAIR (95% CL) Versus Placebo” value [1] was 5.31 (1.26, 36.06) and the “Positively Adjudicated Diabetic Ketoacidosis, EAIR per 1,000 Subject-years (95% CL)” value [1] was 48.68 (16.88, 80.49) per 1,000 Subject-years. The “Positively Adjudicated Diabetic Ketoacidosis, Events [n (%) n]: events n” value [1] was 9, the “Positively Adjudicated Diabetic Ketoacidosis, Events [n (%) n]: patients (%)” value [1] was 4.2% and the “Positively Adjudicated Diabetic Ketoacidosis, Events per Subject per Year” value [1] was 0.049 Events per Subject per Year. The “Positively Adjudicated Severe Hypoglycemia, EAIR per 1,000 Subject-years (95% CL)” value [1] was 59.50 (24.34, 94.67) per 1,000 Subject-years, the “Positively Adjudicated Severe Hypoglycemia, Events [n (%) n]: events n” value [1] was 16 and the “Positively Adjudicated Severe Hypoglycemia, Events [n (%) n]: patients (%)” value [1] was 5.2%. For the same molecule, the “Positively Adjudicated Severe Hypoglycemia, Events per Subject per Year” value [1] was 0.087 Events per Subject per Year, the “Positively Adjudicated Severe Hypoglycemia, Relative Risk of EAIR (95% CL) Versus Placebo” value [1] was 0.71 (0.32, 1.51) and the “Diarrhea, EAIR per 1,000 Subject-years (95% CL)” value [2] was 92.38 (57.53, 127.23) per 1,000 Subject-years. The “Diarrhea, Events [n (%) n]: events n” value [2] was 37, the “Diarrhea, Events [n (%) n]: patients (%)” value [2] was 8.6% and the “Diarrhea, Events [n (%) n]: patients n” value [2] was 27. The “Diarrhea, Events per Subject per Year” value [2] was 0.127 Events per Subject per Year, the “Diarrhea, Relative Risk of EAIR (95% CL) Versus Placebo” value [2] was 1.25 (0.70, 2.27) and the “Documented hypoglycemia <55 mg/dL, Events per Subject per Year” value [2] was 14.45 Events per Subject per Year. The “Genital Mycotic Infections (female), EAIR per 1,000 Subject-years (95% CL)” value [2] was 192.26 (121.05, 263.48) per 1,000 Subject-years, the “Genital Mycotic Infections (female), Events [n (%) n]: events n” value [2] was 48 and the “Genital Mycotic Infections (female), Events [n (%) n]: patients (%)” value [2] was 17.6%. The “Genital Mycotic Infections (female), Events per Subject per Year” value [2] was 0.330 Events per Subject per Year, the “Genital Mycotic Infections (female), Relative Risk of EAIR (95% CL) Versus Placebo” value [2] was 2.70 (1.30, 6.04) and the “Genital Mycotic Infections (male), EAIR per 1,000 Subject-years (95% CL)” value [2] was 47.74 (12.37, 83.10) per 1,000 Subject-years. The “Genital Mycotic Infections (male), Events [n (%) n]: events n” value [2] was 10, the “Genital Mycotic Infections (male), Events [n (%) n]: patients (%)” value [2] was 4.5% and the “Genital Mycotic Infections (male), Events per Subject per Year” value [2] was 0.068 Events per Subject per Year. For the same molecule, the “Genital Mycotic Infections (male), Relative Risk of EAIR (95% CL) Versus Placebo” value [2] was 6.93 (1.07, 157.36), the “Positively Adjudicated Diabetic Ketoacidosis, EAIR per 1,000 Subject-years (95% CL)” value [2] was 37.64 (15.39, 59.88) per 1,000 Subject-years and the “Positively Adjudicated Diabetic Ketoacidosis, Events [n (%) n]: events n” value [2] was 11. For the same molecule, the “Positively Adjudicated Diabetic Ketoacidosis, Events [n (%) n]: patients (%)” value [2] was 3.5%, the “Positively Adjudicated Diabetic Ketoacidosis, Events per Subject per Year” value [2] was 0.038 Events per Subject per Year and the “Positively Adjudicated Diabetic Ketoacidosis, Relative Risk of EAIR (95% CL) Versus Placebo” value [2] was 10.22 (1.74, 221.94). For the same molecule, the “Positively Adjudicated Severe Hypoglycemia, EAIR per 1,000 Subject-years (95% CL)” value [2] was 41.06 (17.83, 64.29) per 1,000 Subject-years, the “Positively Adjudicated Severe Hypoglycemia, Events [n (%) n]: events n” value [2] was 17 and the “Positively Adjudicated Severe Hypoglycemia, Events [n (%) n]: patients (%)” value [2] was 3.8%. For the same molecule, the “Positively Adjudicated Severe Hypoglycemia, Events per Subject per Year” value [2] was 0.058 Events per Subject per Year, the “Positively Adjudicated Severe Hypoglycemia, Relative Risk of EAIR (95% CL) Versus Placebo” value [2] was 0.51 (0.24, 1.02) and the “Discontinuation of drug due to diarrhea” value (SOTA 200 mg) was 0.4%. The “Patients with Any TEAE, (%)” value (SOTA 200 mg) was “(75.0) %”, the “Patients with DKA (positively adjudicated), (%)” value (SOTA 200 mg) was “(2.9) %” and the “Patients with Diarrhea, (%)” value (SOTA 200 mg) was “(6.5) %”. The “Patients with Genital mycotic infection, (%)” value (SOTA 200 mg) was “(9.2) %”, the “Patients with Severe hypoglycemia (positively adjudicated), (%)” value (SOTA 200 mg) was “(5.7) %” and the “Discontinuation of drug due to diarrhea” value (SOTA 400 mg) was 0.8%. For the same molecule, the “Patients with Any TEAE, (%)” value (SOTA 400 mg) was “(74.3) %”, the “Patients with DKA (positively adjudicated), (%)” value (SOTA 400 mg) was “(3.8) %” and the “Patients with Diarrhea, (%)” value (SOTA 400 mg) was “(8.8) %”. The “Patients with Genital mycotic infection, (%)” value (SOTA 400 mg) was “(12.0) %”, the “Patients with Severe hypoglycemia (positively adjudicated), (%)” value (SOTA 400 mg) was “(4.4) %” and the “risk of diarrhea compared to placebo” value (baseline BMI ≥27 kg/m^2, any doses) was “No increased risk”. For the same molecule, the “risk of DKA versus placebo” value (both BMI subgroups) was “increased”, the “risk of severe hypoglycemia” value (both doses, baseline BMI ≥27 kg/m^2 (only 400 mg in BMI <27 kg/m^2)) was “numerically lower risk” and the “event rates of documented hypoglycemia ≤55 mg/dL” value (both doses, both BMI subgroups) was “numerically lower”.
